Results taken from PubChem BioAssay AID248 (DTP/NCI, 2004).
“And” between values parts separate entries of the source, which are not always exact repeats. Equal entries are not always repeated. Toxic doses and inconclusive results are not listed. Cut-off read from the data, not from the text of the source: active = T/C of 150% or more; inactive = T/C below 125%.

Tested on: L1210 leukemia ip in BDF1 mice, survival T/C
Experiment: NCI In Vivo Anticancer Drug Screen. Data for tumor model L1210 Leukemia (intraperitoneal) in B6D2F1 (BDF1) mice
Conditions: endpoint: mean survival time, higher = longer survival
In short: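 In this screen, tumor-bearing mice given compound are compared to those given vehicle, and their survival values are reported as a treated-to-control quotient.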

[1] = dose: 100.0 mg/kg/injection, schedule: Q01DX001 (ip), vehicle: carboxymethylcellulose (CMC)
[2] = dose: 200.0 mg/kg/injection, schedule: Q01DX001 (ip), vehicle: carboxymethylcellulose (CMC)
[3] = dose: 400.0 mg/kg/injection, schedule: Q01DX001 (ip), vehicle: carboxymethylcellulose (CMC)
[4] = dose: 100.0 mg/kg/injection, schedule: Q01DX001 (ip), vehicle: saline
[5] = dose: 200.0 mg/kg/injection, schedule: Q01DX001 (ip), vehicle: saline
[6] = dose: 100.0 mg/kg/injection, schedule: Q01DX009 (ip), vehicle: saline
[7] = dose: 100.0 mg/kg/injection, schedule: Q04DX003 (ip), vehicle: Klucel (hydroxypropylcellulose) (HPC)
[8] = dose: 100.0 mg/kg/injection, schedule: Q04DX003 (ip), vehicle: saline with Tween-80
[9] = dose: 200.0 mg/kg/injection, schedule: Q04DX003 (ip), vehicle: Klucel (hydroxypropylcellulose) (HPC)
[10] = dose: 200.0 mg/kg/injection, schedule: Q04DX003 (ip), vehicle: saline with Tween-80

Measured: T/C

Cc1ccc(NC(N)=O)cc1Cl
inactive: dose: 100.0 mg/kg/injection, schedule: Q01DX009 (ip), vehicle: Klucel (hydroxypropylcellulose) (HPC) 105 % of control | dose: 200.0 mg/kg/injection, schedule: Q01DX009 (ip), vehicle: Klucel (hydroxypropylcellulose) (HPC) 107 % of control | dose: 400.0 mg/kg/injection, schedule: Q01DX009 (ip), vehicle: Klucel (hydroxypropylcellulose) (HPC) 102 % of control

Ic1ccc(N=Cc2cccs2)cc1
inactive: dose: 50.0 mg/kg/injection, schedule: Q01DX001 (ip), vehicle: carboxymethylcellulose (CMC) 100 % of control | [1] 94 % of control | [2] 92 % of control | [3] 94 % of control

NC(N)=NCCCC(N)C(=O)NCCCCCCNCCCCCCNC(=O)C(N)CCCN=C(N)N (stereo unspecified)
inactive: dose: 1.25 mg/kg/injection, schedule: Q01DX Z (ip), vehicle: saline 96 % of control | dose: 2.5 mg/kg/injection, schedule: Q01DX Z (ip), vehicle: saline 94 % of control | dose: 5.0 mg/kg/injection, schedule: Q01DX Z (ip), vehicle: saline 98 % of control | dose: 10.0 mg/kg/injection, schedule: Q01DX Z (ip), vehicle: saline 96 % of control

CCSCC1OC2OC(C)(C)OC2C1O (stereo unspecified)
inactive: [4] 97 % of control | [5] 111 % of control | dose: 400.0 mg/kg/injection, schedule: Q01DX001 (ip), vehicle: saline 97 % of control

CCCCCCCC(=O)N1C(=O)CCC1C(=O)NCC(=O)NCC(=O)OCc1ccccc1 (stereo unspecified)
inactive: dose: 100.0 mg/kg/injection, schedule: Q01DX001 (ip), vehicle: Klucel (hydroxypropylcellulose) (HPC) 95 % of control | dose: 200.0 mg/kg/injection, schedule: Q01DX001 (ip), vehicle: Klucel (hydroxypropylcellulose) (HPC) 98 % of control | dose: 400.0 mg/kg/injection, schedule: Q01DX001 (ip), vehicle: Klucel (hydroxypropylcellulose) (HPC) 91 % of control

Cc1ccc(Nc2cc(=O)[nH]c(=O)[nH]2)c(C)c1
inactive: dose: 18.75 mg/kg/injection, schedule: Q01DX001 (ip), vehicle: saline with Tween-80 97 % of control | dose: 37.5 mg/kg/injection, schedule: Q01DX001 (ip), vehicle: saline with Tween-80 90 % of control | dose: 75.0 mg/kg/injection, schedule: Q01DX001 (ip), vehicle: saline with Tween-80 90 % of control

CC(C)=CCNc1ncnc2c1ncn2C1OC(CO)C(O)C1O (stereo unspecified)
inactive: dose: 50.0 mg/kg/injection, schedule: Q01DX001 (ip), vehicle: saline 98 % of control | dose: 50.0 mg/kg/injection, schedule: Q01DX009 (ip), vehicle: saline 118 % of control | dose: 50.0 mg/kg/injection, schedule: Q01DX015 (ip), vehicle: saline 108 % of control | [4] 93 % of control | [6] 110 % of control | [7] 93 % of control | [8] 96 % of control | dose: 150.0 mg/kg/injection, schedule: Q01DX015 (ip), vehicle: saline 113 % of control | [5] 96 % of control | [9] 104 % of control | [10] 102 % of control

O=C(O)c1c[nH]n2c(=S)ncnc12
inactive: dose: 50.0 mg/kg/injection, schedule: Q01DX009 (ip), vehicle: saline with Tween-80 97 % of control | dose: 100.0 mg/kg/injection, schedule: Q01DX009 (ip), vehicle: saline with Tween-80 96 % of control and 103 % of control | [8] 96 % of control | dose: 200.0 mg/kg/injection, schedule: Q01DX009 (ip), vehicle: saline with Tween-80 102 % of control and 103 % of control | [10] 94 % of control | dose: 400.0 mg/kg/injection, schedule: Q01DX009 (ip), vehicle: saline with Tween-80 101 % of control

O=C(CCl)N1CC2CCC(CC2)C1
inactive: [7] 97 % of control

CC(=O)SC1CS(=O)(=O)CC1SC(C)=O (stereo unspecified)
inactive: [7] 93 % of control | [9] 101 % of control

COC(CN(C)CC(OC)OC)OC
inactive: [6] 107 % of control | dose: 100.0 mg/kg/injection, schedule: Q04DX003 (ip), vehicle: saline 97 % of control | dose: 200.0 mg/kg/injection, schedule: Q01DX009 (ip), vehicle: saline 96 % of control | dose: 200.0 mg/kg/injection, schedule: Q04DX003 (ip), vehicle: saline 112 % of control | dose: 400.0 mg/kg/injection, schedule: Q01DX009 (ip), vehicle: saline 98 % of control | dose: 400.0 mg/kg/injection, schedule: Q04DX003 (ip), vehicle: saline 105 % of control

O=C1NC(=O)C(=Cc2csc3ccccc23)C(=O)N1
inactive: [1] 94 % of control | [2] 96 % of control

OCC1OC(CO)(OC2CC3C(O)CC(O)CC3OC2c2cc(O)c(O)c(O)c2)C(O)C1O (stereo unspecified)
inactive: [1] 103 % of control | [2] 93 % of control | [3] 92 % of control
